Earlier results in patent publication US6777573B1, “Method for the synthesis of ceralure B1” (The United States of America as represented by the …, priority 2002, dated 2004).
“Also recorded” adds a separate entry of the source.

System: Ceratitis capitata (Mediterranean fruit fly, medfly)

| Structure (SMILES) | relative attractiveness among ceralure isomers (isomers separated by HPLC, study of 4 trans isomers (Warthen et al. 1994)) | higher attractancy than the racemate (optically active form versus racemic ceralure B1 (Raw et al.)) |
| --- | --- | --- |
| CCOC(=O)C1CC(I)CCC1C (mixture of isomers) [ceralure B1, ethyl cis,trans-5-iodo-2-methylcyclohexane-1-carboxylate] | most active isomer; also recorded: superior to the other three isomers | – |
| CCOC(=O)C1CC(I)CCC1C (single isomer, unassigned; (-)) [(−)ceralure B1, reference compound] | – | about 30% |
